{"source": "patent US8859628B2", "about": "“Method for preventing, treating and diagnosing disorders of protein aggregation” (priority 2003, dated 2014)", "key": {"TgCRND8 mice [1]": {"tested_on": "TgCRND8 mice", "assay": "Cerebral amyloid plaque burden (anti-Aβ immunostaining, image analysis)", "assay_type": "in vivo, mouse", "description": "(§1) Cerebral amyloid burden—Brains were removed and one hemisphere was fixed in 4% paraformaldehyde and embedded in paraffin wax in the mid saggital plane. To generate sets of systematic uniform random sections, 5 μm serial sections were collected across the entire hemisphere. Sets of sections at […] intervals were used for analyses (10-14 sections/set). Plaque were identified after antigen retrieval with formic acid, and incubated with primary anti-Aβ antibody (Dako M-0872), followed by secondary antibody (Dako StreptABCcomplex/horseradish kit). End products were visualized with DAB counter-stained with hematoxylin. Amyloid plaque burden was assessed using Leco IA-3001 image analysis software interfaced with Leica microscope and Hitachi KP-M1U CCD video camera. Vascular burden was analyzed similarly and a dissector was used to measure the diameter of affected vessels.\nas §1, with “camera.” for “camera. Vascular burden was analyzed similarly and a dissector was used to measure the diameter of affected vessels.”"}, "TgCRND8 mice [2]": {"tested_on": "TgCRND8 mice", "assay": "Cerebral Aβ content (Aβ40 and Aβ42 kits on hemi-brain homogenates)", "assay_type": "in vivo, mouse", "design": "Total Aβ: unit not given here", "description": "(§2) Plasma and Cerebral Aβ Content—Hemi-brain samples were homogenized in a buffered sucrose solution, followed by either 0.4% diethylamine/100 mM NaCl for soluble Aβ levels or cold formic acid for the isolation of total Aβ. After neutralization the samples were diluted and analyzed for Aβ40 and Aβ42 using commercially available kits (BIOSOURCE International). Each hemisphere was analyzed in triplicate with the mean±SEM reported. Western blot analyses were performed on all fractions using urea gels for Aβ species analyses. Aβ was detected using 6E10 (BIOSOURCE International) and Enhanced Chemiluminenscence (Amersham).\n(§3) Plasma and Cerebral Aβ Content—Hemi-brain samples were homogenized in a buffered sucrose solution, followed by either 0.4% diethylamine/100 mM NaCl for soluble Aβ levels or cold formic acid for the isolation of total Aβ. After neutralization the samples were diluted and analyzed for Aβ40 and Aβ42 using commercially available kits (BIOSOURCE International). Each hemisphere was analyzed in triplicate with the mean±SEM reported."}, "TgCRND8 mice [3]": {"tested_on": "TgCRND8 mice", "assay": "Morris Water Maze, spatial reference memory version, three-day trial paradigm (treatment/reversal study)", "assay_type": "in vivo, mouse", "details": "1 month treatment from 5 months of age, three-day paradigm", "description": "A cohort entered the study at 5 months of age and outcomes were analyzed at 6-months of age. The body weight, coat characteristics and in cage behavior was monitored. All experiments were performed according to the Canadian Council on Animal Care guidelines.\nBehavioral Test—Reversal Study—Mice entered the Morris water maze test with a hidden platform on day one without pretraining. Mice were tested for 3 days with six trials per day. On the fourth day, the platform was removed from the pool and each mouse received one 30-s swim probe trial. On the last day the animals underwent a cue test in order to evaluate swimming ability, eye sight and general cognition. The cue test is composed at the platform being placed in a different quadrant than that used for testing and is tagged with a flag. Animals are allowed 60 s to find the platform. […] Behavioural data was analysed using a mixed model of factorial analysis of variance (ANOVA) with drug or genotype and training sessions as repeated measure factors.\nThe cognitive function of TgCRND8 mice was assessed using the spatial reference memory version of the Morris Water Maze using a three day trial paradigm (FIGS. 4-8).\nBehavioural data was analysed using a mixed model of factorial analysis of variance (ANOVA) with drug and genotype as between subject variables and training sessions as within subject variable.\nIn these experiments, the dosage and oral administration of compounds, and the behavioral and neurochemical assays were the same as those employed in the above treatment experiments."}, "Aβ42": {"biological_target": "T1, Aβ42 (Homo sapiens, UniProt P05067)", "T1 construct": "The importance of residues 1-42 (Aβ42) in Alzheimer's disease was highlighted", "T1 sequence (P05067 672-713 limits assumed)": "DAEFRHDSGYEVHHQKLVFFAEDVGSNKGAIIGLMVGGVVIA", "details": "cited from earlier work"}, "TgCRND8 mice [4]": {"tested_on": "TgCRND8 mice", "assay": "Survival census (Kaplan-Meier)", "assay_type": "in vivo, mouse", "details": "vs untreated TgCRND8", "description": "Survival Census—The probability of survival was assessed by the Kaplan-Meier technique, computing the probability of survival at every occurrence of death, thus making it suitable for small sample sizes. For the analyses of survival, 35 mice were used for each treatment group. The comparison between treatments was reported using the Tarone-Ware test."}, "TgCRND8 mice [5]": {"tested_on": "TgCRND8 mice", "assay": "Plasma Aβ levels", "assay_type": "in vivo, mouse", "description": "as §2, §3"}, "TgCRND8 mice [6]": {"tested_on": "TgCRND8 mice", "assay": "Morris Water Maze, spatial reference memory version, five-day trial paradigm (prevention study)", "assay_type": "in vivo, mouse", "details": "6 months of age", "description": "Age and sex-matched cohorts of TgCRND8 mice and non-transgenic littermates (n=35 in each cohort) were either untreated, or were given a compound of the present invention as indicated below at 30 mg/day/mouse beginning at age of about 6 weeks. The mice were followed for outcome measures cognitive function, brain Aβ levels, brain pathology, and survival at 4 months and 6 months of age.\nTwo cohorts entered the study at 6 weeks of age and outcomes were analyzed at 4- and 6-months of age. The body weight, coat characteristics and in cage behavior was monitored. All experiments were performed according to the Canadian Council on Animal Care guidelines.\nBehavioral tests—After non-spatial pre-training, mice underwent place discrimination training for 5 days with 4 trials per day. Behavioral data was analyzed using a mixed model of factorial analysis of variance (ANOVA) with drug or genotype and training sessions as repeated measure factors.\nThe cognitive function of TgCRND8 mice was assessed using the spatial reference memory version of the Morris Water Maze using a five-day trial paradigm (FIGS. 1C-1H). […] The improved performance was also not due to nutritional or caloric effects because body weight, activity, and coat condition were not different between treated and untreated cohorts. […] Gender effects were not significant between any treatment group (p=0.85)."}, "AD patients": {"tested_on": "AD patients", "details": "human, in vivo; cited from earlier work"}, "[7]": {"details": "1 month treatment from 5 months of age"}, "[8]": {"details": "1 month treatment, 30 mg/mouse/day from 5 months, analyzed at 6 months of age"}, "[9]": {"details": "4 month prevention, 30 mg/mouse/day from 6 weeks of age"}, "[10]": {"details": "6 month prevention, 30 mg/mouse/day from 6 weeks of age"}}}
{"molecule": "O[C@H]1[C@H](O)[C@@H](O)[C@H](O)[C@@H](O)[C@H]1O", "note": "[Myo-Inositol, myo-inositol, reference compound]", "values": [{"measurement": "plaque burden vs untreated", "setting": "TgCRND8 mice [1]; [7]", "result": "did not affect the plaque burden or Aβ load"}, {"measurement": "Plaque Area", "setting": "TgCRND8 mice [1]; [8]", "result": "469968 ± 35664", "unit": "μm^2"}, {"measurement": "Plaque Count", "setting": "TgCRND8 mice [1]; [8]", "result": "1324 ± 69"}, {"measurement": "Total Plaque Area/Total Brain Area", "setting": "TgCRND8 mice [1]; [8]", "result": "0.153 ± 0.088", "unit": "%"}, {"measurement": "Plaque Area", "setting": "TgCRND8 mice [1]; [9]", "result": "91902 ± 7453", "unit": "μm^2"}, {"measurement": "Plaque Count", "setting": "TgCRND8 mice [1]; [9]", "result": "649 ± 50"}, {"measurement": "Total Plaque Area/Total Brain Area", "setting": "TgCRND8 mice [1]; [9]", "result": "0.023 ± 0.004", "unit": "%"}, {"measurement": "Plaque Area", "setting": "TgCRND8 mice [1]; [10]", "result": "400013 ± 19638", "unit": "μm^2"}, {"measurement": "Plaque Count", "setting": "TgCRND8 mice [1]; [10]", "result": "927 ± 78"}, {"measurement": "Total Plaque Area/Total Brain Area", "setting": "TgCRND8 mice [1]; [10]", "result": "0.100 ± 0.005", "unit": "%"}, {"measurement": "Aβ load vs untreated", "setting": "TgCRND8 mice [2]; [7]", "result": "did not affect the plaque burden or Aβ load"}, {"measurement": "Total Aβ", "setting": "TgCRND8 mice [2]; [8]", "result": "20490 ± 526"}, {"measurement": "Total Aβ", "setting": "TgCRND8 mice [2]; [9]", "result": "4969 ± 434"}, {"measurement": "Total Aβ", "setting": "TgCRND8 mice [2]; [10]", "result": "17489 ± 354"}, {"measurement": "cognitive function, treated TgCRND8 mice vs non-Tg littermates (words)", "setting": "TgCRND8 mice [3]", "result": "significantly different from treated non-Tg littermates"}, {"measurement": "stabilization of Aβ42 micelle", "setting": "Aβ42", "result": "stabilizes a small micelle of Aβ42"}, {"measurement": "effect on survival of TgCRND8 mice", "setting": "TgCRND8 mice [4]", "result": "did not affect overall survival significantly"}, {"measurement": "Plasma Aβ Levels", "setting": "TgCRND8 mice [5]; 1 month treatment", "result": "2110 ± 174", "unit": "pg/mL"}, {"measurement": "effect on plasma Aβ levels in comparison to untreated (words)", "setting": "TgCRND8 mice [5]; [7]", "result": "Neither myo-inositol, epi-inositol nor scyllo-inositol treatment had any effect on plasma Aβ levels"}, {"measurement": "Plasma Aβ Levels", "setting": "TgCRND8 mice [5]; 4 month prevention", "result": "942 ± 30", "unit": "pg/mL"}, {"measurement": "Plasma Aβ Levels", "setting": "TgCRND8 mice [5]; 6 month prevention", "result": "969 ± 67", "unit": "pg/mL"}, {"measurement": "cognitive function, treated vs untreated TgCRND8 mice (words)", "setting": "TgCRND8 mice [6]", "result": "did not alter cognitive function"}]}
{"molecule": "O[C@H]1[C@H](O)[C@@H](O)[C@H](O)[C@@H](O)[C@H]1O", "note": "[inositol]", "values": [{"measurement": "CAMCOG subscales orientation and language", "setting": "AD patients", "result": "did show significant improvement"}]}
